Source: patent US11247965B2 (VenatoRx Pharmaceuticals, Inc., priority 2017, dated 2022)
Where two headings read alike, the source gives them in different places.

What was measured:
[1] = test system: HBV replication in HepAD38 cells; assay: Anti-HBV activity in HepAD38 cells, extracellular HBV DNA by QPCR; type: cell-based, HBV (genotype D, serotype ayw); details: Hepatitis B virus, HePAD38, 168 h
Protocol: The anti-HBV activity of the Capsid Assembly Modulators (CAMs) was evaluated in a cell based assay utilizing the human hepatoma cell line HepAD38 (Ladner, S K., et al., 1998). HepAD38 cells were derived from the parental line, HepG2, that were stably transfected with a construct containing an HBV genome (genotype D, serotype ayw) under the control of a tetracycline repressible CMV promoter. Upon removal of tetracycline, viral pre-genomic RNA (pgRNA) and mRNAs are expressed and infectious viral particles are assembled and secreted into the culture medium providing a reliable, robust system to measure multiple steps of the HBV life cycle. Disruption of capsid formation results in reduced levels of DNA-containing virus particles that are released into the culture supernatant. To quantify the effect of CAMs on HBV replication, we developed a sensitive QPCR-based assay that measures extracellular HBV DNA levels upon treatment of HepAD38 cells with various concentrations of test compounds.
HepAD38 cells were maintained in DMEM/F12 medium containing 10% FBS, 400 μg/mL G418 and 0.3 μg/mL tetracycline (tet+medium) to maintain repression of HBV replication. To evaluate each compound, HepAD38 cells were seeded into 24-well collagen coated culture plates (Corning BioCoat) at a density of 200,000 cells per well in 1 mL of tet+medium and allowed to adhere overnight at 37° C., 5% CO2 in a humidified incubator. The following day, test articles were subjected to half-logo serial dilutions, ranging from 30 μM to 10 nM, in 100% DMSO at 200× the desired final assay concentration. Tetracycline was removed from the cells by aspirating the tet+medium and washing the cells once with growth medium lacking tetracycline (tet-). Various concentrations of each compound were added to the appropriate wells (1:200 dilution) and the plates were returned to the incubator. Following 7 days of incubation, culture supernatants were harvested and HBV DNA levels were evaluated by QPCR and compared to the vehicle treated control wells (i.e. DMSO alone).
To quantify HBV DNA levels, cell culture supernatants were diluted 1:10 in sterile, nuclease-free water (Gibco). The diluted supernatants were subsequently added to a PCR master mix containing 1× Roche Light Cycler Master Mix, 0.5 μM forward primer, 0.5 μM reverse primer (Fwd:
0.2 μM Roche Universal Probe Library Probe 25. The volume was brought to 20 μL with nuclease-free water and amplification of the HBV target sequence was performed using a Roche LightCycler 480 QPCR instrument. PCR extended out to 45 cycles with each cycle consisting of a denaturation step at 95° C. for 10 sec., followed by an annealing step at 60° C. for 10 sec. and a brief extension step at 72° C. for 1 sec.
Extracellular HBV DNA levels, expressed in copies/mL, were determined by comparison to a standard curve (10^2-10^9 copies/mL) using the Roche LightCycler analysis software. These values were subsequently converted to percent inhibition of HBV replication by dividing the HBV DNA levels in the experimental samples with those obtained from the vehicle control (˜1-2×10^5 copies/mL). Potency, expressed as an EC50 (the effective concentration required to inhibit […] of HBV replication), was calculated from the dose-response curve using a 4-parameter non-linear regression analysis (GraphPad Prism). The nucleoside analog inhibitor entecavir was used as a positive control to validate each assay run. The EC50 value of entecavir in the HepAD38 assay was 0.5 nM, as previously reported in the literature.

[2] = In vitro cytotoxicity, MTT cell viability assay in HepG2 cells; type: cell-based; details: human
Protocol: To evaluate antiviral selectivity, the cytotoxic activity of each compound was determined using a standard cell viability assay performed on the parental HepG2 cell line. Cell viability was determined by measuring the conversion of 3-(4,5-dimethylthiazol-2-yl)-2,5-diphenyltetrazolium bromide (MTT) to the insoluble formazan salt crystal that occurs in live cells. Briefly, HepG2 cells were seeded in 96-well plates at a density of 20,000 cells per well in EMEM+10% FBS (complete growth medium) and allowed to adhere overnight in a 37° C., 5% CO2 humidified incubator. The next day, test agents were prepared by performing 8 half-log10 serial dilutions in 100% DMSO at 200× the final desired concentration in the assay. Compounds were tested over a range of concentrations from 30 μM to 1.0 nM in the assay. HepG2 cells were incubated in the presence of various concentrations of CAMs for 7 days in a 37° C., 5% CO2 humidified incubator. At the completion of the 7-day incubation period, MTT reagent was added to each well and the mixture was incubated for an additional 3-4 hours. At the completion of the incubation period, all wells were aspirated to remove the culture medium. The formazan crystals were solubilized from the cell monolayers with 100% DMSO. Plates were briefly mixed on an orbital shaker and absorbance was measured at 492 nm using a Perkin-Elmer EnVision multi-label plate reader. All absorbance values were converted to a percentage of the signal obtained from the vehicle treated controls. Absorbance values at 492 nm are directly proportional to the number of viable cells present in the sample. A CC50 value (cytotoxic concentration that results in loss of 50% cell viability) was calculated from the dose-response curve by 4-parameter, non-linear regression analysis using the GraphPad Prism software. The positive control compound, staurosporine, reduced the viability of HepG2 cells in a dose-dependent manner (CC50=100 nM).

[3] = read-out: Anti-HBV EC50, HepAD38 cells, extracellular HBV DNA by QPCR, 7 days of incubation

SMILES | EC50 [1, 3] | CC50 at 7 days ([2]; Cytotoxicity CC50) | EC50 ([1]; positive control, HepAD38 cells, 7 days incubation, extracellular HBV DNA, read-out: EC50 in the HepAD38 assay) | CC50 at 7 days ([2]; positive control, HepG2 cells, 7 days incubation, MTT, read-out: CC50, viability of HepG2 cells)
Cc1cc(NC(=O)c2ccc(Cl)c(C(F)(F)C(=O)N3CC[C@@H](O)[C@H](O)C3)c2)ccc1F (racemic) [Example 56, (±)-4-chloro-3-(2-(3,4-dihydroxypiperidin-1-yl)-1,1-difluoro-2-oxoethyl)-N-(4-fluoro-3-methylphenyl)benzamide] | < 5 µM | > 30 µM |  | 
CCC(C)NC(=O)C(F)(F)c1cc(C(=O)Nc2ccc(F)c(F)c2)ccc1F (stereo not shown) [Example 1, 3-(2-(sec-butylamino)-1,1-difluoro-2-oxoethyl)-N-(3,4-difluorophenyl)-4-fluorobenzamide] | < 5 µM | 5 to 30 µM |  | 
O=C(Nc1ccc(F)c(F)c1)c1ccc(F)c(C(F)(F)C(=O)N2CCC(O)CC2)c1 [Example 2, 3-(1,1-difluoro-2-(4-hydroxypiperidin-1-yl)-2-oxoethyl)-N-(3,4-difluorophenyl)-4-fluorobenzamide] | < 5 µM | 5 to 30 µM |  | 
O=C(Nc1ccc(F)c(F)c1)c1ccc(F)c(C(F)(F)C(=O)N[C@H]2CCOC2)c1 [Example 3, (S)-3-(1,1-difluoro-2-oxo-2-((tetrahydrofuran-3-yl)amino)ethyl)-N-(3,4-difluorophenyl)-4-fluorobenzamide] | 5 to 30 µM | 5 to 30 µM |  | 
O=C(Nc1ccc(F)c(F)c1)c1ccc(F)c(C(F)(F)C(=O)N2CCOCC2)c1 [Example 4, 3-(1,1-difluoro-2-morpholino-2-oxoethyl)-N-(3,4-difluorophenyl)-4-fluorobenzamide] | 5 to 30 µM | 5 to 30 µM |  | 
O=C(Nc1ccc(F)c(F)c1)c1ccc(F)c(C(F)(F)C(=O)NC2CCOCC2)c1 [Example 5, 3-(1,1-difluoro-2-oxo-2-((tetrahydro-2H-pyran-4-yl)amino)ethyl)-N-(3,4-difluorophenyl)-4-fluorobenzamide] | 5 to 30 µM | 5 to 30 µM |  | 
O=C(Nc1ccc(F)c(F)c1)c1ccc(F)c(C(F)(F)C(=O)NCC2COCCO2)c1 (stereo not shown) [Example 6, 3-(2-(((1,4-dioxan-2-yl)methyl)amino)-1,1-difluoro-2-oxoethyl)-N-(3,4-difluorophenyl)-4-fluorobenzamide] | 5 to 30 µM | 5 to 30 µM |  | 
CC(C)NC(=O)C(F)(F)c1cc(C(=O)Nc2ccc(F)c(F)c2)ccc1F [Example 7, 3-(1,1-difluoro-2-(isopropylamino)-2-oxoethyl)-N-(3,4-difluorophenyl)-4-fluorobenzamide] | 5 to 30 µM | 5 to 30 µM |  | 
O=C(Nc1ccc(F)c(F)c1)c1ccc(F)c(C(F)(F)C(=O)NC2CCCCC2)c1 [Example 8, 3-(2-(cyclohexylamino)-1,1-difluoro-2-oxoethyl)-N-(3,4-difluorophenyl)-4-fluorobenzamide] | 5 to 30 µM | 5 to 30 µM |  | 
Cc1ccc(C(=O)Nc2ccc(F)c(F)c2)cc1C(F)(F)C(=O)NC(C)C [Example 9, 3-(1,1-difluoro-2-(isopropylamino)-2-oxoethyl)-N-(3,4-difluorophenyl)-4-methylbenzamide] | > 30 µM | > 30 µM |  | 
Cc1ccc(C(=O)Nc2ccc(F)c(F)c2)cc1C(F)(F)C(=O)N1CCC(O)CC1 [Example 10, 3-(1,1-difluoro-2-(4-hydroxypiperidin-1-yl)-2-oxoethyl)-N-(3,4-difluorophenyl)-4-methylbenzamide] | 5 to 30 µM | 5 to 30 µM |  | 
O=C(Nc1ccc(F)c(F)c1)c1ccc(F)c(C(F)(F)C(=O)N2CCCCC2)c1 [Example 11, 3-(1,1-difluoro-2-oxo-2-(piperidin-1-yl)ethyl)-N-(3,4-difluorophenyl)-4-fluorobenzamide] | 5 to 30 µM | 5 to 30 µM |  | 
O=C(Nc1ccc(F)c(F)c1)c1ccc(F)c(C(F)(F)C(=O)N2CC[C@H](O)C2)c1 [Example 12, (S)-3-(1,1-difluoro-2-(3-hydroxypyrrolidin-1-yl)-2-oxoethyl)-N-(3,4-difluorophenyl)-4-fluorobenzamide] | 5 to 30 µM | 5 to 30 µM |  | 
O=C(Nc1ccc(F)c(F)c1)c1ccc(F)c(C(F)(F)C(=O)N2CC[C@H](CO)C2)c1 [Example 13, (S)-3-(1,1-difluoro-2-(3-(hydroxymethyl)pyrrolidin-1-yl)-2-oxoethyl)-N-(3,4-difluorophenyl)-4-fluorobenzamide] | 5 to 30 µM | 5 to 30 µM |  | 
Cc1cc(NC(=O)c2cccc(C(F)(F)C(=O)N3CCC(O)CC3)c2)ccc1F [Example 14, 3-(1,1-difluoro-2-(4-hydroxypiperidin-1-yl)-2-oxoethyl)-N-(4-fluoro-3-methylphenyl)benzamide] | < 5 µM | 5 to 30 µM |  | 
O=C(Nc1ccc(F)c(F)c1)c1ccc(F)c(C(F)(F)C(=O)N2CCCC(O)C2)c1 (stereo not shown) [Example 15, 3-(1,1-difluoro-2-(3-hydroxypiperidin-1-yl)-2-oxoethyl)-N-(3,4-difluorophenyl)-4-fluorobenzamide] | < 5 µM | 5 to 30 µM |  | 
Cn1cc(C(=O)Nc2ccc(F)c(Cl)c2)cc1C(F)(F)C(=O)NC(C)(C)C [Example 139, 5-(2-(tert-butylamino)-1,1-difluoro-2-oxoethyl)-N-(3-chloro-4-fluorophenyl)-1-methyl-1H-pyrrole-3-carboxamide] | < 5 µM |  |  | 
Cc1cc(NC(=O)c2ccc(F)c(C(F)(F)C(=O)N3CCn4c(cnc4C(F)(F)F)C3)c2)ccc1F [Example 312, 3-(1,1-difluoro-2-oxo-2-(3-(trifluoromethyl)-5,6-dihydroimidazo[1,5-a]pyrazin-7(8H)-yl)ethyl)-4-fluoro-N-(4-fluoro-3-methylphenyl)benzamide] | < 5 µM |  |  | 
Cc1cc(NC(=O)c2ccc(F)c(C(F)(F)C(=O)N3[C@@H]4CC[C@H]3c3sc(N)nc3C4)c2)ccc1F [Example 313, 3-(2-((5R,8S)-2-amino-5,6,7,8-tetrahydro-4H-5,8-epiminocyclohepta[d]thiazol-9-yl)-1,1-difluoro-2-oxoethyl)-4-fluoro-N-(4-fluoro-3-methylphenyl)benzamide] | < 5 µM |  |  | 
C=C1[C@H](CO)[C@@H](O)C[C@@H]1n1cnc2c(=O)[nH]c(N)nc21 [entecavir, reference compound] |  |  | 0.0005 µM | 
CN[C@@H]1C[C@H]2O[C@@](C)([C@@H]1OC)n1c3ccccc3c3c4c(c5c6ccccc6n2c5c31)C(=O)NC4 [staurosporine, reference compound] |  |  |  | 0.1 µM
